Assay results published in patent US11028084B2, “Selective inhibitors of gentotoxic steress-induced IKK/NF-κB pathways” (Max-Delbrück-Centrum für Molekulare Medizin in der …, priority 2016, dated 2021).
“Also recorded” adds a separate entry of the source.

Experiments:
Type in all cases: cell-based, human
[1] = tested on: NF-κB target genes NFKBIA, TNFAIP3, CXCL8; experiment: qRT-PCR of NF-κB target genes after irradiation, U2OS cells; settings: 90 min after irradiation
Procedure: FIG. 14: (A) U2OS cells were pre-treated with different concentrations of olaparib prior to co-treatment with etoposide. Whole cell lysis was performed after 90 min and cleared lysates were used for WB with indicated antibodies. (B) U2OS cells were pre-treated with DMSO, olaparib or the ATM inhibitor Ku55933 and co-treated with etoposide. Cells were harvested after 45 min and subjected to SDS-PAGE/WB. Membranes were stained with the indicated antibodies. The experiment of (B) was performed simultaneously to the experiments of (A) and (E) to control functionality of olaparib in inhibiting PAR chain formation. (C) Densitometrical analyses of (A) and two further independent experiments done as shown in (A). (D) U2OS cells were pre-treated with the substances as indicated prior to irradiation. After 90 min mRNA was isolated, transcribed into cDNA and was used for expression analyses of the indicated genes using quantitative real-time PCR (qRT-PCR). (E) HepG2 cells were pre-treated with the PARP inhibitors olaparib, 3-AB and EB-47 prior to γ-irradiation. Cells were harvested after 15 and 90 min and subjected to SDS-PAGE/WB. Membranes were stained with the indicated antibodies. Error bars equal SEM.
To quantitate specific mRNA (messenger RNA) species in samples RNA was isolated, RNA concentration was measured and mRNA was transcribed into cDNA. The amount of mRNA transcripts of certain genes within a sample was quantified by employing gene specific primers and using a C-1000 Thermal cycler (Biorad). The expression of genes of interest was normalised against two or three reference genes (HRPT1, RPL_13a and B2M) using the CFX manager software. The fold induction of mRNA was calculated over untreated sample levels by the ΔΔ-Ct method.

[2] = tested on: genotoxic stress-induced NF-κB signaling; experiment: Etoposide-induced p65 nuclear translocation, immunofluorescence / high content screening in U2OS cells
Procedure: FIG. 2: U2OS cells were pre-treated and incubated with DMSO or MW01. DNA damage was induced by administration of etoposide. After 2 h cells were fixed, nuclei were stained with DAPI. p65 and phospho-H2AX, which is indicative for DNA DSB, were stained by immunofluorescence. Images were taken at a confocal Zeiss 710 LSM with a 40× oil objective.
FIG. 3: (A) U2OS cells were pre-treated with increasing concentrations of MW01 in duplicates in a 384 well plate. Then, cells were treated with etoposide, fixed and subjected to IF of p65. Spatial measurement of p65 cytosolic and nuclear localisation was used for calculation of p65 translocation rates. (B) U2OS cells were pre-treated with DMSO, MW01 and irradiated with γ-IR. After 90 min cells were lysed and subjected to SDS-PAGE/WB and EMSA. (C) Cells were pre-treated with different concentrations of MW01 as indicated, treated with γ-IR (C) or etoposide (D) and subjected to WB or EMSA, respectively. LDH in (C) represents the loading control.
Genotoxic stress was applied by ionizing irradiation of cells with a Cs137 source (0629 Irradiator, STS Braunschweig), or by inhibition of the topoisomerase II enzyme by administration of etoposide at concentrations between 20-50 μM for 2 h.
For immunofluorescence staining 0.95×10^5 cells were seeded in 6 well plates onto autoclaved cover slips. Cellular confluency dictated to beginning of the experiment (2-3 days from seeding). After conduction of experiments cells were washed with PBS and fixed with 4% PFA/double-distilled H2O (ddH2O) for 10 min at RT. Following two additional washing steps cells were incubated with a solution containing 0.12% glycine/0.2% saponin in PBS for 10 min and then blocked with a solution containing 10% FCS/0.2% saponin in PBS for 1 h. Primary antibody incubation was performed overnight at 4° C. (1:500 diluted in 0.2% saponin in PBS). The next day, cover slips were washed five times with a solution containing 0.2% saponin in PBS. Fluorophor-coupled secondary antibodies (1:1000 diluted in 0.2% saponin in PBS) were incubated for 1 h (hour) at RT. Nuclei were stained using 0.2 mg/ml DAPI in PBS for […] or by directly mounting with DAPI/Mowiol. Finally, the cover slips were washed five times with 0.2% saponin in PBS and two times with ddH2O. Confocal microscopy was performed using a Zeiss 710 LSM with a 40× or a 63× oil objective.
In order to identify specific inhibitors of the DNA damage-induced NF-κB pathway, a differential screening assay was designed. The primary screening for inhibitors of genotoxic stress-induced NF-κB signaling utilised a library of compounds from ChemBioNet and donated compounds of academic chemists. DNA damage was applied by application of etoposide. All compounds which inhibited p65 nuclear translocation were taken for subsequent counter screening. For the counter screening administration of TNFα was used to induce canonical NF-κB signaling. All substances inhibiting TNFα-induced canonical NF-κB activation were discarded from the list of potential DNA damage-pathway specific substances.

[3] = tested on: TNFα-induced canonical NF-κB activation; experiment: TNFα-induced p65 nuclear translocation (counter screening), U2OS cells; settings: different concentrations
Procedure: FIG. 4: (A) U2OS cells were pre-treated with increasing concentrations of MW01 in triplicates in a 384 well plate. Then, cells were treated with TNFα, fixed and subjected to IF staining of p65. Spatial measurement of p65 cytosolic and nuclear signals was used for the calculation of p65 translocation rates. (B) U2OS cells were pre-treated with MW01 at concentrations of 10 or 20 μM and stimulated with TNFα. Cell lysates were subjected to SDS-PAGE/WB. (C) HEK293 cells were pre-treated with DMSO or MW01 followed by administration of etoposide or TNFα. Cell lysates were used for EMSA.
For the activation of the canonical NF-κB pathway cells were treated with recombinant human TNFα (10 ng/ml) or IL-1β (10 ng/ml) for 20-30 min at 37° C.
For immunofluorescence staining 0.95×10^5 cells were seeded in 6 well plates onto autoclaved cover slips. Cellular confluency dictated to beginning of the experiment (2-3 days from seeding). After conduction of experiments cells were washed with PBS and fixed with 4% PFA/double-distilled H2O (ddH2O) for 10 min at RT. Following two additional washing steps cells were incubated with a solution containing 0.12% glycine/0.2% saponin in PBS for 10 min and then blocked with a solution containing 10% FCS/0.2% saponin in PBS for 1 h. Primary antibody incubation was performed overnight at 4° C. (1:500 diluted in 0.2% saponin in PBS). […]

## COc1ccc2c(c1OC)c(=O)n1c3ccc(O)cc3c3ccnc2c31 [MW01, 12-hydroxy-6,7-dimethoxy-8H-benzo[c]indolo[3,2,1-ij][1,5]naphthyridin-8-one]
[1]
  NFKBIA, TNFAIP3 and CXCL8 mRNA induction upon irradiation: complete inhibition
[2]; Homo sapiens, U2OS, etoposide-induced p65 nuclear translocation, high content screening
  IC50: 460 nM
[2]; IC50 determination assay
  calculated Hill coefficient: −0.9
[2]; etoposide
  percentage in activity change (as recorded in IC50 determination assay): 120%
[2]; etoposide stimulation, U2OS
  concentration sufficient for maximal inhibition of p65 nuclear translocation: 5 µM
[2]; etoposide, U2OS
  inhibition of etoposide-induced p65 nuclear translocation / NF-κB activation: inhibited NF-κB activation in response to etoposide stimulation; also recorded: inhibited the nuclear translocation of p65 upon etoposide stimulation in a concentration dependent manner
[3]
  effect on p65 nuclear translocation / NF-κB activation after TNFα stimulation: did not interfere with p65 nuclear translocation rates
